Ki data for 25 compounds are collected here from US7504508B2, “PGD2 receptor antagonists for the treatment of inflammatory diseases” (Millennium Pharmaceuticals, Inc., priority 2002, dated 2009).

Some results are limits rather than exact numbers.

The target in this experiment is T1, cloned human CRTH2 receptor (Homo sapiens, UniProt Q9Y5Y4).
T1 construct: purchased Biosignal; host or cells: HEK-293 cells stably expressing human CRTH2 and G-alpha-16 (membranes)
T1 sequence (Q9Y5Y4 1-395): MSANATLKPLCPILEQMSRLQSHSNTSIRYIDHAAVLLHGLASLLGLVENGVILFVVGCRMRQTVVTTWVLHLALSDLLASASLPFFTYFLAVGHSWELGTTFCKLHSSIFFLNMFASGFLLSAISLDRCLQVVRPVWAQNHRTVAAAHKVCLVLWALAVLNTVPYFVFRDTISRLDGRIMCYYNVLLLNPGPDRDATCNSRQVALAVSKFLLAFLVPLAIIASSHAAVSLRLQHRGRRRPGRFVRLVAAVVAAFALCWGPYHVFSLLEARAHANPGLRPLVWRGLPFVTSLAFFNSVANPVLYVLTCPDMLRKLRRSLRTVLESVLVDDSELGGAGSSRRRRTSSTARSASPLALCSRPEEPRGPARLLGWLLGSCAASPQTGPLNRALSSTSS
In words: Radioligand membrane binding assay: inhibition of [3H] PGD2 binding to CRTH2 (Scintillation Proximity Assay). The conditions noted are these: inhibition of [3H] PGD2 binding to membranes of HEK-293 cells stably expressing human CRTH2; SPA; 10 point curve from 10 μM; room temperature, approximately 2 hours. The procedure:
This radioligand membrane binding assay evaluates the ability of compounds to inhibit [^3H] Prostaglandin D2 (PGD2) binding to the cloned human CRTH2 receptor stably expressed in HEK-293 cells (expressing human CRTh2 receptor and α subunit or the heteronimeric G protein 16 were prepared by Biosignal Company) using Scintillation Proximity Assay.
A binding buffer containing 50 mM Tris-HCl (pH 7.5), 5 mM MgCl2 and 1 mM EDTA was prepared immediately prior to performing the assay. A bead/membrane solution at twice the final assay concentration comprising membranes (membranes bought from Biosignal) from the HEK-293 cells cloned to express CRTH2 receptor bound to and [3H] PGD2 at twotimes the final assay concentration were prepared and stored on ice before adding to wells. Cold PGD2 at twenty times the final assay concentration was prepared and stored on ice before adding to wells defining non-specific binding (NSB) corning plates #3653 were used for this assay.
10 mM stock concentrations of compounds in 100% DMSO were prepared and stored at room temperature. A 10 point concentration response curve was then constructed for each compound, starting at 10 μM (final assay concentration). The compounds were prepared at 40 times final assay concentrations with nine consequent-3-fold dilutions.
0.1 μl of each concentration of compound were added to the appropriate well of the 384 plate and 2 μl of cold PGD2 was added into the wells defining NSB. 20 μl of [^3H] PGD2 and then 20 μl of 2× of bead/membrane solution were then added to each well.
The plates were allowed to incubate at room temperature for approximately 2 hours and then counted on Packard Topcount using SPA tritium protocol for 1 minute/well.
The percent inhibition of PGD2 binding (PGD2 used at the KD value or lower) to the HEK-293 cell membranes was determined, the assay was always run as duplicate for n=1 for a total of n=2.
One may read the Ki as a measure of affinity in units of concentration, obtained from inhibition or displacement. Low readings indicate a stronger hold on the target, high ones a looser hold on the target. In the case of `COc1cccc(C(=O)N2c3ccccc3[C@H](N(C(=O)c3ccno3)c3ccccc3)C[C@@H]2C)c1` (racemic) [Compound A-55, (±)-Cis-isoxazole-5-carboxylic acid [1-(3-methoxy-benzoyl)-2-methyl-1,2,3,4-tetrahydro-quinolin-4-yl]-phenyl-amide], the Ki is below 10 µM.
Next, `CCC(=O)N(c1ccccc1)C1CC(C)N(C(=O)C2CN(CC)CCO2)c2ccccc21` (racemic) [Compound A-82, (±)-Cis-N-[1-(4-Ethyl-morpholine-2-carbonyl)-2-methyl-1,2,3,4-tetrahydro-quinolin-4-yl]-N-phenyl-propionamide]: below 10 µM; `CCC(=O)N(c1ccc(Cl)cc1)[C@@H]1C[C@H](C)N(C(=O)c2ccc(F)cc2)c2ccc(OC)cc21` (racemic) [Compound B-59, (±)-Cis-N-(4-chloro-phenyl)-N-[1-(4-fluoro-benzoyl)-6-methoxy-2-methyl-1,2,3,4-tetrahydro-quinolin-4-yl]-propionamide]: below 10 µM; `CCC(=O)N(c1ccccc1)C1CC(C)N(C(=O)C2CN(Cc3ccccc3)CCO2)c2ccccc21` (racemic) [Compound A-81, (±)-Cis-N-[1-(4-benzyl-morpholine-2-carbonyl)-2-methyl-1,2,3,4-tetrahydro-quinolin-4-yl]-N-phenyl-propionamide]: below 10 µM.
Regarding `CCC(=O)N(c1ccc(Cl)cc1)[C@@H]1C[C@H](C)N(C(=O)c2ccc(F)cc2)c2ccc(OC(C)(C)C(=O)O)cc21` (racemic) [Compound B-66, (±)-Cis-2-[4-[(4-chloro-phenyl)-propionyl-amino]-1-(4-fluoro-benzoyl)-2-methyl-1,2,3,4-tetrahydro-quinolin-6-yloxy]-2-methyl-propionic acid], the Ki is below 10 µM.
Consider `CC(=O)N(C)CC(=O)N(c1ccccc1)[C@@H]1C[C@H](C)N(C(=O)c2ccc(F)cc2)c2ccccc21` (racemic) [Compound A-49, (±)-Cis-2-(acetyl-methyl-amino)-N-[1-(4-fluoro-benzoyl)-2-methyl-1,2,3,4-tetrahydro-quinolin-4-yl]-N-phenyl-acetamide], for which the inhibition constant (Ki) is below 10 µM.
The compound `COc1cccc(C(=O)N2c3ccccc3[C@H](N(C(C)=O)c3ccccc3)C[C@@H]2c2ccccc2)c1` (racemic) [Compound B-100, (±)-Cis-N-[1-(3-methoxy-benzoyl)-2-phenyl-1,2,3,4-tetrahydro-quinolin-4-yl]-N-phenyl-acetamide] came in with an inhibition constant (Ki) below 60 µM.
As for `COc1cccc(C(=O)N2c3ccccc3[C@@H](N(C(C)=O)c3ccccc3)C[C@H]2C)c1` [Compound A-126, (2R,4S)-cis-N-[1-(3-methoxy-benzoyl)-2-methyl-1,2,3,4-tetrahydro-quinolin-4-yl]-N-phenyl-acetamide], the inhibitory constant (Ki) is below 60 µM.
Next, `CC(=O)N(c1ccccc1)C1CC(C)N(C(=O)c2ccc(F)cc2)c2ccccc21` (stereo not shown) [Compound A-53]: below 60 µM; `CCC(=O)N(c1ccccc1)[C@@H]1C[C@H](C)N(C(=O)c2ccc(-c3ccc(C(F)(F)F)cc3Cl)o2)c2ccccc21` (racemic) [Compound A-143, (±)-Cis-N-{1-[5-(2-chloro-4-trifluoromethyl-phenyl)-furan-2-carbonyl]-2-methyl-1,2,3,4-tetrahydro-quinolin-4-yl}-N-phenyl-propionamide]: below 10 µM; `COc1ccc(C(=O)N2c3ccccc3[C@H](N(C(C)=O)c3ccc(C(=O)CCC(=O)O)c(Cl)c3)C[C@@H]2C)cc1` [Compound D-2, (2S,4R)-4-(4-{Acetyl-[1-(4-methoxy-benzoyl)-2-methyl-1,2,3,4-tetrahydro-quinolin-4-yl]-amino}-2-chloro-phenyl)-4-oxo-butyric acid]: below 10 µM.
In turn, `COc1ccc(C(=O)N2c3ccccc3[C@H](N(C(C)=O)c3ccc(OCC(=O)O)cc3)C[C@@H]2C)cc1` [Compound D-10, (2S,4R)-(4-{Acetyl-[1-(4-methoxybenzoyl)-2-methyl-1,2,3,4-tetrahydro-quinolin-4-yl]-amino}-phenoxy)-acetic acid] displayed a Ki below 10 µM.
For the compound `COc1cccc(C(=O)N2c3ccccc3C(N(C(C)=O)c3ccccc3)CC2(C)C)c1` (stereo not shown) [Compound F-1, N-[1-(3-Methoxy-benzoyl)-2,2-dimethyl-1,2,3,4-tetrahydro-quinolin-4-yl]-N-phenyl-acetamide], the Ki is below 60 µM.
In turn, `CC(=O)N(c1ccccc1)C1CC(C)N(C(=O)c2sc(-c3ccccc3)nc2C)c2ccccc21` (stereo not shown) [Compound A-156] came in with a Ki below 10 µM.
Next, `CCC(=O)N(c1ccc(Cl)cc1)[C@H]1C[C@@H](C)N(C(=O)c2ccc(OC)cc2)c2ccccc21` [Compound B-18, (2R,4S)-cis-N-(4-chloro-phenyl)-N-[1-(4-methoxy-benzoyl)-2-methyl-1,2,3,4-tetrahydro-quinolin-4-yl]-propionamide]: below 10 µM.
The same measure for `COc1ccc(C(=O)N2c3ccccc3[C@H](N(C(C)=O)c3ccc(CC(=O)O)cc3)C[C@@H]2C)cc1` (racemic) [Compound B-39, (±)-Cis-(4-{acetyl-[1-(4-methoxy-benzoyl)-2-methyl-1,2,3,4-tetrahydro-quinolin-4-yl]-amino}-phenyl)-acetic acid]: below 10 µM.
Take `CCC(=O)N(c1ccc(Cl)cc1)[C@@H]1C[C@H](C(F)(F)F)N(C(=O)c2cccc(OC)c2)c2ccc(OC)cc21` (racemic) [Compound B-110, (±)-Cis-N-(4-chloro-phenyl)-N-[6-methoxy-1-(3-methoxy-benzoyl)-2-trifluoromethyl-1,2,3,4-tetrahydro-quinolin-4-yl]-propionamide]: the Ki was below 10 µM.
`COc1ccc(C(=O)N2c3ccccc3[C@H](N(C(C)=O)c3ccc(C(=O)O)cc3)C[C@@H]2C)cc1` [Compound C-37, (2S,4R)-4-{Acetyl-[1-(4-methoxy-benzoyl)-2-methyl-1,2,3,4-tetrahydro-quinolin-4-yl]-amino}-benzoic acid] registered a Ki below 10 µM.
The same measure for `CC(=O)N(c1ccccc1)[C@@H]1C[C@H](C)N(C(=O)C2CCCCC2)c2ccccc21` (racemic) [Compound A-157, (±)-Cis-N-(1-cyclohexanecarbonyl-2-methyl-1,2,3,4-tetrahydro-quinolin-4-yl)-N-phenyl-acetamide]: below 10 µM; for `CC(=O)N(c1ccccc1)[C@@H]1C[C@H](C)N(C(=O)c2sc(C)nc2C)c2ccccc21` (racemic) [Compound A-67, (±)-Cis-N-[1-(2,4-dimethyl-thiazole-5-carbonyl)-2-methyl-1,2,3,4-tetrahydro-quinolin-4-yl]-N-phenyl-acetamide]: below 10 µM; for `CC(=O)N(c1ccc(Oc2ccccc2)cc1)[C@@H]1C[C@H](C)N(C(=O)c2ccc(F)cc2)c2ccccc21` (racemic) [Compound B-51, (±)-Cis-N-[1-(4-fluoro-benzoyl)-2-methyl-1,2,3,4-tetrahydro-quinolin-4-yl]-N-(4-phenoxy-phenyl)-acetamide]: below 10 µM.
The same measure for `CC(=O)N(c1ccccc1)[C@@H]1C[C@H](C)N(C(=O)c2cc(C)nn2C)c2ccccc21` (racemic) [Compound A-159, (±)-Cis-N-[1-(2,5-dimethyl-2H-pyrazole-3-carbonyl)-2-methyl-1,2,3,4-tetrahydro-quinolin-4-yl]-N-phenyl-acetamide]: below 10 µM; for `COc1cccc(C(=O)N2c3ccccc3[C@H](N(C(=O)C3CCCCC3)c3ccccc3)C[C@@H]2C)c1` (racemic) [Compound A-54, (±)-Cis-cyclohexanecarboxylic acid [1-(3-methoxy-benzoyl)-2-methyl-1,2,3,4-tetrahydro-quinolin-4-yl]-phenylamide]: below 10 µM.
In turn, `CC(C)CC(=O)N(c1ccccc1)[C@@H]1C[C@H](C)N(C(=O)c2ccc(F)cc2)c2ccccc21` (racemic) [Compound A-132, (±)-Cis-N-[1-(4-fluoro-benzoyl)-2-methyl-1,2,3,4-tetrahydro-quinolin-4-yl]-3-methyl-N-phenyl-butyramide] gave a Ki below 10 µM.
The same measure for `CCC(=O)N(c1ccccc1)[C@H]1C[C@@H](C)N(C(=O)c2ccc(C3CCN(C(C)=O)CC3)cc2)c2ccccc21` [Compound A-51, (2R,4S)-cis-N-{1-[4-(1-acetyl-piperidin-4-yl)-benzoyl]-2-methyl-1,2,3,4-tetrahydro-quinolin-4-yl}-N-phenyl-propionamide]: below 10 µM.
